The subject of data set [1] is HER2-positive SKBR3 and BT474 cells. In words: Cell viability (CellTiter-Glo), HER2-positive cells. It is filed as cell-based. Conditions: 96 h, HER2-positive cell lines, FIG. 2. The method, then: (§1) HER2-positive SKBR3 and BT474 cells were obtained from the American Type Culture Collection (ATCC) and HER2-negative MCF7 and T47D cells were obtained from the European Collection of Authenticated Cell Cultures (ECACC) and ATCC, respectively. SKBR3 cells were maintained in high glucose McCoy's 5A medium, supplemented with 10% heat-inactivated foetal-bovine serum (FBS), 50 U/mL penicillin and 50 μg/mL streptomycin. MCF7 cells were maintained in Dulbecco's Modified Eagle Medium (DMEM) supplemented with 10% heat-inactivated fetal-bovine serum (FBS), 2 mM L-glutamine, 50 U/mL penicillin and 50 μg/mL streptomycin. BT474 and T47D cell lines were maintained in RPM11640 medium supplemented with 10% heat-inactivated fetal-bovine serum (FBS), 2 mM L-glutamine, 50 U/mL penicillin and 50 μg/mL streptomycin. All cell lines were incubated at 37° C. with 5% CO2.
(§2) Cells were seeded in 96-well plates for 24 h at 37° C. with 5% CO2. SKBR3 cells were seeded at 15,000 cells/well, BT474 cells were seeded at 20,000 cells/well, MCF7 cells were seeded at 7,500 cells/well and T47D cells were seeded at 10,000 cells/well. […] Cell viability was measured using CellTiter-Glo viability assay (Promega) according to the manufacturer's instructions. Cell viability was plotted as a percentage of untreated cells.

For data set [2], the system named is HER2-negative MCF7 and T47D cells. Kind of data set: Cell viability (CellTiter-Glo), HER2-negative cells. It counts as cell-based. Conditions: 96 h, HER2-negative cell lines, FIG. 2. The method, then:
as §1, §2

Data set [3] is described as follows: Stability of model cysteine conjugates incubated with excess reduced L-glutathione (GSH), tracked via 1H NMR. Conditions: 3 equivalents GSH, pH 7.4 buffer, 37° C., after two weeks. It counts as physicochemical. The protocol:
The stability of conjugate 3 under physiological conditions was investigated by incubation with excess (3 equivalents) reduced L-glutathione (GSH) in pH 7.4 buffer (40% CD-3OD/NaPi—50 mM) at 37° C. The stability was tracked via ^1H NMR and almost no degradation (<5%) was observed after two weeks.

The subject of another data set is trastuzumab Fab. Kind of data set: Trastuzumab Fab conjugation kinetic experiment (LC-MS). The settings on record: 10 and 20 equivalents of linker, after 15 minutes, 37° C. The protocol:
The mixtures were vortexed and incubated at 37° C. for 1 h. A solution of 8 (10 mM in DMSO) was added to each solution (final concentration equal to 10 and 20 equivalents) and the reaction mixture incubated at 37° C. At t=0, 5, 10, 15, 20, 30, 40 and 60 min, 0.5 μL was removed from each reaction, diluted with MilliQ water (9 μL) and quenched with 100 eq. of cysteine (5 mM in DMSO). LC-MS analysis was then used to quantify conversion.

Non-standard residues stand in square brackets, D forms with d. Residues, ends and D or L forms follow the SMILES beside them. *: point of attachment. Dolaproine = CO[C@@H]([C@@H]1CCCN1)[C@@H](C)C(=O)O; Dil = CC[C@H](C)[C@H](NC)[C@@H](CC(=O)O)OC; X1 = C[C@@H](N*)[C@@H](O)c1ccccc1; NMeV = CN[C@H](C(=O)O)C(C)C

Turning to `CC[C@H](C)[C@@H]([C@@H](CC(=O)N1CCC[C@H]1[C@H](OC)[C@@H](C)C(=O)N[C@H](C)[C@@H](O)c1ccccc1)OC)N(C)C(=O)[C@@H](NC(=O)[C@@H](NC)C(C)C)C(C)C` [MMAE] (H-[NMeV]V[Dil][Dolaproine]-X1), the “cytotoxicity (cell viability)” value in data set [1] and in data set [2] was “high levels of cytotoxicity” each time. As for `COC(=O)[C@H](CSCCc1ccnc(N)n1)NC(=O)OC(C)(C)C` [compound 3], in data set [3], the degradation is less than 5%. Consider `COC(=O)[C@H](CSC1CC(=O)N(Cc2ccccc2)C1=O)NC(=O)OC(C)(C)C` (stereo partly drawn) [compound 6, methyl S-(1-benzyl-2,5-dioxopyrrolidin-3-yl)-N-(tert-butoxycarbonyl)-L-cysteinate], for which, in data set [3], the “conversion to the glutathione conjugate” value is given as more than 50%. Turning to `C#CCCCCNc1nc(C=C)cc(C=C)n1` [compound 8, N-(hex-5-yn-1-yl)-4,6-divinylpyrimidin-2-amine], the “re-bridging of the Fab chains” value in the data set on trastuzumab Fab was more than 90%.

Values taken from US12377164B2, “Linkers and conjugates” (ASTRAZENECA AB, priority 2018, dated 2025).
